“And” between values parts separate entries of the source, which are not always exact repeats. Equal entries are not always repeated. “Also recorded” adds a separate entry of the source.
Assays:
[1] = system: CRC102 patient-derived tumor organoids; experiment: Patient tumor organoid cytotoxicity; assay type: cell-based; conditions: Homo sapiens; single agent, Table 4A
Protocol: Patient Cell Tumor Organoid Culture. CRC048 and CRC102 patient cell samples were expanded and cultured as PDTOs using reported methodologies and reagents. (Drost et al., 2016; Sato et al., 2011) Briefly, patient cells were washed with PBS, digested with TrypLE, and filtered through 100 μm cell strainer before used in 3D cell culture. Patient cells were seeded at 5,000 cells per well in 96-well plates, coated with 2% Matrigel, and allowed to self-assemble as PDTOs over 72 h.
Tumor Organoid Cytotoxicity.

[2] = Liver toxicity, histological evaluation; assay type: in vivo, athymic nude mice; design: key to Liver Inflammation score: 0 = none; 1 = minimal; 2 = mild; 3 = moderate; 4 = severe; key to Liver Assessment: N = normal background lesion for mouse strain; A = abnormal; conditions: for liver toxicity, in words: 50 mg/kg i.p. QD 5 days
Protocol: Two million VimPro-GFP SW620 cells suspended in 100 μL of a 1:1 mixture of Matrigel® matrix (Corning Life Sciences, Corning, N.Y.) and RPMI 1640 were injected into the flanks of 9-week old female athymic nude mice (Nude-Foxn1nu (069)) (Envigo, Huntingdon, Cambridgeshire, UK). Growth was monitored with caliper measurements 3× per week. […] Treatments were administered i.p. QD over five days. Mice were sacrificed 2 h after the final dose on day five of the treatment.

[3] = system: DLD1CHD1L-EV cells; experiment: DNA damage by γ-H2AX immunofluorescence; assay type: cell-based, human; conditions: low CHD1L expressing cells
Protocol: (§1) DLD1^CHD1L-OE cells were seeded into a 96-well PerkinElmer Cell Carrier plate and allowed to adhere overnight. Cells were then treated with the appropriate compound at 10 μM (0.5% DMSO) or with CHD1L inhibitor in combination SN-38 (1 μM), oxaliplatin (10 μM), and etoposide (10 μM). Cells were treated for 6 h. Media was aspirated and cells were washed with cold PBS. Cells were then fixed with 3% paraformaldehyde for 15 min at room temperature, fixed cells were washed with PBS three times. Cells were blocked for 1 hour at room temperature in 5% BSA, 0.3% Triton X-100 in PBS. Cells were then immunostained with phospho-(S139)-g-H2AX rabbit mAb using a 1:800 dilution in 1% BSA, 0.3% Triton X-100 in PBS at 4° C. overnight. Primary antibody was aspirated and cells were washed with PBS. Cells were incubated for 2 h at room temperature with goat anti-rabbit Alexa Fluor Plus™ 647 fluorescent secondary antibody at a concentration of 5 μg/mL in 1% BSA, 0.3% Triton X-100 in PBS. Cells were then washed with PBS, Hoechst 33342 stain was diluted to a concentration of 1:1000 in PBS, and added to cells for 15 min at room temperature. Cells were then imaged using a 20× water objective on the Opera Phenix™ HCS imaging system (PerkinElmer). Synergy was determined using the coefficient of drug interaction (CDI) equation, CDI=(A+B)/(AB). Synergy was defined in these experiments with a CDI<0.8. Additivity was 0.8-1.2 and antagonism was defined by a CDI>1.2.
(§2) γ-H2AX DNA damage combination studies with irinotecan (SN38). CHD1L inhibitor 6 alone and in combination with SN38 was assessed for DNA damage as previously reported [Abbott et al., 2020; Abraham et al., 2019]. Using DLD1 colorectal cancer cells that have low CHD1L endogenous expression and DLD1 cells engineered to overexpress CHD1L, DNA damage studies were conducted measuring the immunofluorescence of γ-H2AX, a well-established biomarker of DNA damage [Ji et al., 2017; Ivashkevich et al., 2012]. […] Media was aspirated and cells were washed with cold PBS. Cells were then fixed with 3% paraformaldehyde for 15 min at room temperature and washed with PBS three times. Cells were blocked for 1 hour at room temperature in 5% BSA, 0.3% Triton X-100 in PBS. Cells were then immunostained with phospho-(S139)-γ-H2AX rabbit mAb using a 1:800 dilution in 1% BSA, 0.3% Triton X-100 in PBS at 4° C. overnight. Primary antibody was aspirated, and cells were washed with PBS. Cells were incubated for 2 hours at room temperature with goat anti-rabbit Alexa Fluor Plus™ 647 fluorescent secondary antibody at a concentration of 5 μg/mL in 1% BSA, 0.3% Triton X-100 in PBS. Cells were then washed with PBS; Hoechst 33342 stain was diluted to a concentration of 1:1000 in PBS and added to cells for 15 min at room temperature. Cells were then imaged using a 20× water objective on the PerkinElmer Phenix HCS imaging system. […] CDI=(A+B)/(AB), synergy was determined with a CDI<0.8, additivity was 0.8-1.2, and antagonism was defined by a CDI>1.2. Welch's t-test statistical analysis was used to determine significance, where **=P≤0.01.

[4] = system: DLD1CHD1L-OE cells; experiment: DNA damage by γ-H2AX immunofluorescence; assay type: cell-based, human; conditions: 6 h; for DNA damage (γ-H2AX), combination with SN-38: compound 10 μM + SN-38 1 μM, vs SN-38 alone
Protocol: as §1, §2

Cc1cc(Nc2ccc(NC(=O)Cc3cccs3)cc2)nc(N2CCCC2)n1 [Compound 6, N-(4-((6-methyl-2-(pyrrolidin-1-yl)pyrimidin-4-yl)amino)phenyl)-2-(thiophen-2-yl)acetamide]
IC50 [1]: 22.6 µM | Liver Assessment ([2]; 50 mg/kg QD 5 days, one line per animal, listed as Compound 6.0): N (2×) and A (2×) | Liver Inflammation score ([2]; 50 mg/kg QD 5 days, one line per animal, scored if abnormal): 1 | liver toxicity, in words [2]: no evidence of hepatocyte degeneration, necrosis, hyperplasia, or parenchymal inflammation | liver toxicity, in words ([2]; listed as 6.0): no apparent liver toxicity; also recorded: does not display any liver toxicity | DNA damage (γ-H2AX), combination with SN38 [3]: nor does it synergize with SN38 | DNA damage (γ-H2AX), compound alone [3]: does not induce significant DNA damage | DNA damage (γ-H2AX), combination with etoposide ([3]; etoposide 10 μM): significant synergy | DNA damage (γ-H2AX activity), compound alone ([4]; 10 μM): no significant DNA damage | DNA damage (γ-H2AX), combination with SN-38 [4]: synergized | DNA damage (γ-H2AX), combination with SN-38 ([4]; listed as 6.0): synergy | DNA damage (γ-H2AX), combination with etoposide ([4]; compound 10 μM + etoposide 10 μM, vs etoposide alone): synergized | DNA damage (γ-H2AX), combination with oxaliplatin ([4]; compound 10 μM + oxaliplatin 10 μM): no synergy

From US20230103444A1 (The Regents of the University of Colorado, a Body Corporate, priority 2020, published 2023)
